Laboratory results taken from PubChem BioAssay AID1963853 (Molecular Pharmacology Branch, DTP, NCI, 2024).

Test system: 266295-075-R-J1-PDC spheroid viability
Test: Anticancer human tumor 266295-075-R-J1-PDC patient-derived head and neck squamous carcinoma cell line growth inhibition [POLQ]
Settings: spheroids with HUVEC and MSC; for IC50: curve of first compound; for viability, T/C: stronger effect = lower value; active = viability on the fitted dose curve at most 10% of control; inactive = the rest
Procedure, shortened: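 PDC + HUVEC + MSC complex spheroids; POLQ inhibitors ± partner drugs; top conc. at/near clinical Cmax, else 10 microM (SN-38 1 microM), half-log dilutions; 37 degrees C, 5% CO2.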

[1] = second compound 0.0316 µM, first compound 0.0316 µM
[2] = second compound 0.0316 µM, first compound 0.1 µM
[3] = second compound 0.0316 µM, first compound 0.316 µM
[4] = second compound 0.0316 µM, first compound 1 µM
[5] = second compound 0.0316 µM, first compound 3.16 µM
[6] = second compound 0.0316 µM, first compound 10 µM
[7] = second compound 0.1 µM, first compound 0.0316 µM
[8] = second compound 0.1 µM, first compound 0.1 µM
[9] = second compound 0.1 µM, first compound 0.316 µM
[10] = second compound 0.1 µM, first compound 1 µM
[11] = second compound 0.1 µM, first compound 3.16 µM
[12] = second compound 0.1 µM, first compound 10 µM
[13] = second compound 0.316 µM, first compound 0.0316 µM
[14] = second compound 0.316 µM, first compound 0.1 µM
[15] = second compound 0.316 µM, first compound 0.316 µM
[16] = second compound 0.316 µM, first compound 1 µM
[17] = second compound 0.316 µM, first compound 3.16 µM
[18] = second compound 0.316 µM, first compound 10 µM
[19] = second compound 1 µM, first compound 0.0316 µM
[20] = second compound 1 µM, first compound 0.1 µM
[21] = second compound 1 µM, first compound 0.316 µM
[22] = second compound 1 µM, first compound 1 µM
[23] = second compound 1 µM, first compound 3.16 µM
[24] = second compound 1 µM, first compound 10 µM
[25] = second compound 3.16 µM, first compound 0.0316 µM
[26] = second compound 3.16 µM, first compound 0.1 µM
[27] = second compound 3.16 µM, first compound 0.316 µM
[28] = second compound 3.16 µM, first compound 1 µM
[29] = second compound 3.16 µM, first compound 3.16 µM
[30] = second compound 3.16 µM, first compound 10 µM
[31] = second compound 10 µM, first compound 0.0316 µM
[32] = second compound 10 µM, first compound 0.1 µM
[33] = second compound 10 µM, first compound 0.316 µM
[34] = second compound 10 µM, first compound 1 µM
[35] = second compound 10 µM, first compound 3.16 µM
[36] = second compound 10 µM, first compound 10 µM
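Also: spheroids exposed to compounds for seven days before readout.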

C#Cc1c(F)ccc2cc(O)cc(-c3ncc4c(N5CC6CCC(C5)N6)nc(OCC56CCCN5CC(F)C6)nc4c3F)c12 (stereo not drawn) + Nc1ccc(C#CCN(C(=O)Cc2ncc(C(F)(F)F)cc2C(F)(F)F)c2ccc(F)cc2)nn1
8.3 µM: IC50 (second compound 0.316 µM)
> 10 µM: IC50 (second compound 0.0316 µM) | IC50 (second compound 1 µM) | IC50 (second compound 3.16 µM) | IC50 (second compound 10 µM)
7.4 µM: IC50 (second compound 0.1 µM)
inactive: viability, T/C [1] 86.8% | viability, T/C [2] 89% | viability, T/C [3] 82.9% | viability, T/C [4] 71.6% | viability, T/C [5] 60.8% | viability, T/C [6] 50% | viability, T/C [7] 90.2% | viability, T/C [8] 103% | viability, T/C [9] 75.2% | viability, T/C [10] 81% | viability, T/C [11] 67% | viability, T/C [12] 43.7% | viability, T/C [13] 89.2% | viability, T/C [14] 71.7% | viability, T/C [15] 63% | viability, T/C [16] 84.1% | viability, T/C [17] 60.7% | viability, T/C [18] 47.3% | viability, T/C [19] 114% | viability, T/C [20] 84% | viability, T/C [21] 70.7% | viability, T/C [22] 68.3% | viability, T/C [23] 56.9% | viability, T/C [24] 54.7% | viability, T/C [25] 80.8% | viability, T/C [26] 90.6% | viability, T/C [27] 74.7% | viability, T/C [28] 68.7% | viability, T/C [29] 71.6% | viability, T/C [30] 64.1% | viability, T/C [31] 91.8% | viability, T/C [32] 73.9% | viability, T/C [33] 82.5% | viability, T/C [34] 63.8% | viability, T/C [35] 64.1% | viability, T/C [36] 52.4%

COc1ccc([C@@H](O)c2cc(-c3ncnc4cc(N5CCOCC5)ccc34)c(F)cc2Cl)nn1 + COC1C(OC(N)=O)C(O)C(Oc2ccc3c(O)c(NC(=O)c4ccc(O)c(CC=C(C)C)c4)c(=O)oc3c2C)OC1(C)C
inactive: viability, T/C [1] 97.3% | viability, T/C [2] 84.5% | viability, T/C [3] 76.6% | viability, T/C [4] 62.7% | viability, T/C [5] 49.9% | viability, T/C [6] 40.7% | viability, T/C [7] 107% | viability, T/C [8] 105% | viability, T/C [9] 73.1% | viability, T/C [10] 74.5% | viability, T/C [11] 47.5% | viability, T/C [12] 43.7% | viability, T/C [13] 104% | viability, T/C [14] 85.9% | viability, T/C [15] 75.2% | viability, T/C [16] 64.7% | viability, T/C [17] 51.8% | viability, T/C [18] 43.4% | viability, T/C [19] 91.1% | viability, T/C [20] 96% | viability, T/C [21] 68.2% | viability, T/C [22] 73.6% | viability, T/C [23] 48.2% | viability, T/C [24] 39.8% | viability, T/C [25] 95.9% | viability, T/C [26] 84.6% | viability, T/C [27] 83.2% | viability, T/C [28] 62.2% | viability, T/C [29] 46% | viability, T/C [30] 40.2% | viability, T/C [31] 112% | viability, T/C [32] 75% | viability, T/C [33] 75.2% | viability, T/C [34] 63% | viability, T/C [35] 50.9% | viability, T/C [36] 37.3%
3.45 µM: IC50 (second compound 0.0316 µM)
4.31 µM: IC50 (second compound 0.316 µM)
2.48 µM: IC50 (second compound 3.16 µM)
4.06 µM: IC50 (second compound 0.1 µM)
2.74 µM: IC50 (second compound 10 µM)
3.67 µM: IC50 (second compound 1 µM)

COc1cc2cc(C(=O)CCC(=O)O)sc2cc1OC + COC1C(OC(N)=O)C(O)C(Oc2ccc3c(O)c(NC(=O)c4ccc(O)c(CC=C(C)C)c4)c(=O)oc3c2C)OC1(C)C
> 10 µM: IC50 (second compound 0.0316 µM) | IC50 (second compound 0.1 µM) | IC50 (second compound 0.316 µM) | IC50 (second compound 1 µM) | IC50 (second compound 3.16 µM) | IC50 (second compound 10 µM)
inactive: viability, T/C [1] 99.4% | viability, T/C [2] 95.9% | viability, T/C [3] 114% | viability, T/C [4] 101% | viability, T/C [5] 95.4% | viability, T/C [6] 82.4% | viability, T/C [7] 69.1% | viability, T/C [8] 90.1% | viability, T/C [9] 96.8% | viability, T/C [10] 120% | viability, T/C [11] 93.8% | viability, T/C [12] 93.3% | viability, T/C [13] 97.7% | viability, T/C [14] 91.6% | viability, T/C [15] 92.4% | viability, T/C [16] 99.2% | viability, T/C [17] 91.5% | viability, T/C [18] 87.6% | viability, T/C [19] 100% | viability, T/C [20] 96.4% | viability, T/C [21] 97.8% | viability, T/C [22] 111% | viability, T/C [23] 93.2% | viability, T/C [24] 93.4% | viability, T/C [25] 99.5% | viability, T/C [26] 90.2% | viability, T/C [27] 95.6% | viability, T/C [28] 112% | viability, T/C [29] 90.7% | viability, T/C [30] 90.1% | viability, T/C [31] 114% | viability, T/C [32] 90.6% | viability, T/C [33] 96.5% | viability, T/C [34] 98.5% | viability, T/C [35] 120% | viability, T/C [36] 90.2%

COc1cccc2c1C(=O)c1c(O)c3c(c(O)c1C2=O)CC(O)(C(=O)CO)CC3OC1CC(N)C(O)C(C)O1 (stereo not drawn) + Nc1ccc(C#CCN(C(=O)Cc2ncc(C(F)(F)F)cc2C(F)(F)F)c2ccc(F)cc2)nn1
2.44 µM: IC50 (second compound 10 µM)
active: viability, T/C [6] 2.33% | viability, T/C [12] 2.03% | viability, T/C [18] 1.67% | viability, T/C [24] 2.11% | viability, T/C [30] 1.77% | viability, T/C [36] 2.11%
4.42 µM: IC50 (second compound 0.0316 µM)
4.37 µM: IC50 (second compound 0.316 µM)
3.47 µM: IC50 (second compound 3.16 µM)
3.75 µM: IC50 (second compound 0.1 µM)
4.41 µM: IC50 (second compound 1 µM)
inactive: viability, T/C [1] 93% | viability, T/C [2] 106% | viability, T/C [3] 74.4% | viability, T/C [4] 83.8% | viability, T/C [5] 72.4% | viability, T/C [7] 126% | viability, T/C [8] 103% | viability, T/C [9] 89.2% | viability, T/C [10] 80.5% | viability, T/C [11] 71.8% | viability, T/C [13] 119% | viability, T/C [14] 106% | viability, T/C [15] 74.2% | viability, T/C [16] 96.6% | viability, T/C [17] 72.9% | viability, T/C [19] 92.7% | viability, T/C [20] 84.3% | viability, T/C [21] 89.3% | viability, T/C [22] 77.9% | viability, T/C [23] 71.8% | viability, T/C [25] 103% | viability, T/C [26] 102% | viability, T/C [27] 73.9% | viability, T/C [28] 74.2% | viability, T/C [29] 64% | viability, T/C [31] 134% | viability, T/C [32] 99.5% | viability, T/C [33] 90.1% | viability, T/C [34] 73.8% | viability, T/C [35] 53.3%
